The data set is described as follows: Human HepG2 cell viability assay in 384 well format. The class given is toxicity, cell-based. Also noted: dose 125 nL, time 70.5 hour; cytotoxicity at 70.5 h: concentration not given beside the values. The settings on record: HepG2 cells, read-out: Inhibition.

As to `CN(Cc1ccc(F)cc1)Cc1nc(-c2cnccn2)no1`, the cytotoxicity at 70.5 h is -7.07%. The same measure for `CNC(=O)[C@H]1C[C@@H]2CN(C(=O)c3cncc(C)c3)C[C@@H]2N1C`: -16.6%; for `CCN(CC)Cc1nc2c(o1)CN(C(=O)c1ccncc1F)C2`: -4.3%; for `CCOCC1CN(C(=O)CC2=CCCCC2)Cc2nnn(C)c21` (stereo unspecified): -12.8%.

On to `O=C([C@@H]1CCO[C@@H]2CCN(CC3CC3)C[C@H]21)N1CCCC1`, for which the cytotoxicity at 70.5 h is -2.49%. For the compound `O=C([C@H]1CCCO1)N1CCC2(CC1)Cc1ccccc1CNC2=O`, the cytotoxicity at 70.5 h was found to be 3.51%.

As to `Cc1cccc(-c2nnn3c2COC(CNC(=O)N2CCCC2)C3)c1` (stereo unspecified), the cytotoxicity at 70.5 h is 1.74%. In the case of `O=C1CO[C@@H]2CNC[C@H]2N1CC1CC1`, the cytotoxicity at 70.5 h turned out to be 2.73%. The same measure for `Cc1ccc2c(c1)C(N1CCOCC1)CC21CCNCC1` (stereo unspecified): -8.36%; for `CCc1cnc(N2C[C@H]3CCCC(N(C)Cc4ccccn4)[C@H]3C2)nc1` (stereo partly specified): -10.1%; for `CC(C)Cn1c2c(ccc1=O)CC(NC(=O)c1ccsc1)CC2` (stereo unspecified): -11.8%. For `CS(=O)(=O)N1CCOCC2(CCN(c3cnccn3)CC2)C1`, the cytotoxicity at 70.5 h was -7.29%. Take `Cn1cccc1C(=O)N1C[C@H]2CN(CCN3CCCC3)C(=O)[C@H]2C1`: the cytotoxicity at 70.5 h was -8.62%. With `Cc1cnc(C(=O)N2CCC3(CCCN(c4nncs4)C3)C2)cn1` (stereo unspecified), the cytotoxicity at 70.5 h was -0.974%. In the case of `COc1ccc(C(=O)N2CCN(C(=O)Cn3nccc3C)CC2)cc1`, the cytotoxicity at 70.5 h is 1.46%. As for `Cc1nc(CN(C)CC2CCCN(CCc3ccc(Cl)cc3)C2)n(C)n1` (stereo unspecified), the cytotoxicity at 70.5 h is -19.1%. Turning to `CS(=O)(=O)N1CCc2[nH]cnc2C12CCN(C(=O)c1ccc[nH]1)CC2`, the cytotoxicity at 70.5 h is -3.3%.

As for `Cc1nc(-c2ccncc2)ncc1C(C)NC(=O)C1=NN(C)C(=O)CC1` (stereo unspecified), the cytotoxicity at 70.5 h is -8.41%. Take `Nc1cc(N2CCCC(CO)(Cc3ccccc3F)C2)nc(N)n1` (stereo unspecified): the cytotoxicity at 70.5 h stood at 28.8%. With `Cc1ccc(NC2(C(=O)NCc3c(C)n[nH]c3C)CCCC2)cc1` the figure was -5.51%; with `COc1cccc(C(=O)C2CCCN(c3cc(C#N)ccn3)C2)c1` (stereo unspecified), -10.3%. Turning to `O=C(NCCn1cccc1)C1CCN(C2CCCCC2)CC1`, the cytotoxicity at 70.5 h was -13.6%. With `COc1ccc(C)cc1-n1c(COC(C)C)n[nH]c1=O` the figure was -18.9%; with `O=C(c1cccc(S(=O)(=O)NCCc2nccs2)c1)N1CCOCC1`, -3.1%. `COc1cccc(CC(=O)N2CCCN(c3ccnc(C)c3)CC2)c1`: the cytotoxicity at 70.5 h is -3.97%. As for `CCN1CCN(S(=O)(=O)N2CCC(OC)CC2)[C@H]2CS(=O)(=O)C[C@H]21`, the cytotoxicity at 70.5 h was -9.02%. As for `Cc1ccccc1SC1CCN(C(=O)C2CNCC(=O)N2)CC1` (stereo unspecified), the cytotoxicity at 70.5 h is -1.6%. `CN(CCCc1ccccc1)C(=O)c1cn2c(n1)CNCC2`: the cytotoxicity at 70.5 h is -3.6%. For the compound `COc1ccc(N2CCN(Cc3nc(CSC)no3)C(C)C2=O)cc1` (stereo unspecified), the cytotoxicity at 70.5 h is -21.8%. `CCCSc1ccccc1NC(=O)N1CCC(N2CCSCC2)CC1`: the cytotoxicity at 70.5 h was determined as 0.648%. Consider `Cc1cc(-c2c(C)c(-c3cnn(C)c3)nc(N)c2C#N)oc1C`, for which the cytotoxicity at 70.5 h worked out at 37.4%. With `CN(C)C(=O)CN1C[C@@H]2CC[C@H](C1)N(C(=O)CCCn1cncn1)C2` the figure was -8.72%; with `FC(F)(F)c1ccnc(N2CCC(c3nccn3CC3CC3)CC2)n1`, -4.46%.

As for `COc1c(C)cc(S(=O)(=O)NCC2CNCCOC2)cc1C` (stereo unspecified), the cytotoxicity at 70.5 h was 3.62%. The same measure for `Cc1nc2ccccc2n1Cc1cc(C(=O)NC2CCOC2)no1` (stereo unspecified): -18.8%; for `CC(C)n1ccnc1C1CCCN(c2nc3ccccc3s2)C1` (stereo unspecified): 2.12%.

Take `CN(C)CC(=O)Nc1ccc(C(=O)N(C)CCc2cn[nH]c2)cc1`: the cytotoxicity at 70.5 h is -1.37%. Turning to `Cc1cc2[nH]c(CN3CCCCC3c3cccc(F)c3)cc(=O)n2n1` (stereo unspecified), the cytotoxicity at 70.5 h was -5.96%. With `CC(C)CN(Cc1ccccn1)Cc1ccccc1C(=O)O` the figure was 14.4%. With `Cc1ccc(C(=O)N2CCC3(CC2)CN(CCN(C)C)C(=O)O3)c(F)c1`, the cytotoxicity at 70.5 h was found to be 7.08%. Consider `COc1cc(OC)cc(C2CC(=O)Nc3c2nc2n3CCCC2)c1` (stereo unspecified), for which the cytotoxicity at 70.5 h is -3.11%. Consider `CC(C)c1nnc(CN2CCC3(CC2)Nc2ccccc2NC3=O)o1`, for which the cytotoxicity at 70.5 h stood at 18%.

Consider `CC(C)S(=O)(=O)NCc1cccnc1Oc1ccc(F)cc1F`, for which the cytotoxicity at 70.5 h amounted to 1.03%. Take `CC(C)N(C)C(=O)Cn1ncc(N(C)CCc2ccccc2)cc1=O`: the cytotoxicity at 70.5 h is -3.47%. On to `NC(=O)c1cnc2n1CCN(C(=O)c1cccc(Cn3cccn3)c1)C2`, for which the cytotoxicity at 70.5 h is -5.38%.

On to `CC1(c2ccccc2)CCC(=O)N(CC2(N3CCOCC3)CCCC2)C1` (stereo unspecified), for which the cytotoxicity at 70.5 h amounted to 6.77%. Regarding `Nc1ncc(CN2CCC(CCC(=O)NC3CC3)CC2)cn1`, the cytotoxicity at 70.5 h worked out at 0.29%. Turning to `Cc1cc(N2CCN(C(=O)c3cnn(C(C)C)c3)CC2)cc(C)n1`, the cytotoxicity at 70.5 h is 7.11%. Turning to `CCOc1ccc(OCc2nc3c(c(=O)[nH]2)CCNC3)cc1`, the cytotoxicity at 70.5 h was -13.5%. Consider `CNc1ccnc(N2CCC(c3nnc(CN4CCCC4)n3C)CC2)n1`, for which the cytotoxicity at 70.5 h is 13.4%.

`CN(CCCc1cnn(C)c1)c1nccc(-c2cc(C(=O)O)ccn2)n1`: the cytotoxicity at 70.5 h was -5.12%. As to `O=C1NCCCc2[nH]c(-c3nc(C4CCCCC4)no3)nc21`, the cytotoxicity at 70.5 h stood at 8.47%. As for `O=C(c1cn2cc(Cl)cnc2n1)N1CCOCC(O)(CN2CCCC2)C1` (stereo unspecified), the cytotoxicity at 70.5 h was -1.97%.

On to `Cc1cc(C)c(C(=O)N2CCN(c3ncccc3C#N)CC2)c(=O)[nH]1`, for which the cytotoxicity at 70.5 h is 1.08%. The same measure for `Cc1nc(CN2CCC(c3cc(N4CCCC4)ncn3)CC2)cs1`: 4.68%; for `COCCCn1cnnc1CNC(=O)c1[nH]c2c(C)cc(C)cc2c1C`: -6.04%. As for `CCc1ocnc1C(=O)N1CCC(n2cc(-c3ccsc3)nn2)CC1`, the cytotoxicity at 70.5 h was -10.3%. `CC(=O)NCC(=O)N1Cc2cnc(CC(C)C)nc2C1`: the cytotoxicity at 70.5 h was -5.57%. For `CCC(CO)N(Cc1ccco1)C(=O)c1sccc1NC(C)=O` (stereo unspecified), the cytotoxicity at 70.5 h is -5.95%.

As for `CN(C)CCNCC1(O)CCCN(Cc2cccc(F)c2F)C1=O` (stereo unspecified), the cytotoxicity at 70.5 h turned out to be 16.1%. Regarding `CCCN1CC2(CCN(C)CC2)CC1C(=O)NCCn1cccn1` (stereo unspecified), the cytotoxicity at 70.5 h is -6%.

As to `CN(C)[C@H]1CCN(c2ccnc(C(=O)NCc3ccco3)c2)C1`, the cytotoxicity at 70.5 h was -5.04%. As for `COCC1CCN(Cc2cc(O)c3c(C)ccc(C)c3n2)CC1`, the cytotoxicity at 70.5 h came out at 17.7%. The same measure for `CN(CCc1cnn(C)c1)C(=O)C1COc2ccccc2C1` (stereo unspecified): -10.5%.

`OC1(CN2CCCC2)COCCN(c2nnc(-c3ccccc3)s2)C1` (stereo unspecified): the cytotoxicity at 70.5 h was found to be 15.8%.

For `N[C@H]1CN(C(=O)CCc2cc(Cl)no2)C[C@@H]1c1ccccc1`, the cytotoxicity at 70.5 h is 29%.

Turning to `CC(=O)c1cc(CC(=O)N2CCCC2c2nc(C(C)C)no2)cs1` (stereo unspecified), the cytotoxicity at 70.5 h was -3.24%. With `CCN1CCC(CC(=O)NCc2cc(C)nn2C)CC1` the figure was -4.69%. For `Cc1cccc(N2CCN(CCC(=O)NCc3cccnc3)CC2)c1`, the cytotoxicity at 70.5 h was -0.687%. With `CC(C)NC(=O)N1CCCC(c2nnc(CN3CCOCC3)n2C)C1` (stereo unspecified) the figure was -10.9%. Regarding `Cn1ccc2c(-c3cc(N4CCCCC4)ncn3)ccnc21`, the cytotoxicity at 70.5 h stood at 24.9%. With `O=C1NCC2(CCCN(C(=O)c3csc(-c4cccs4)n3)C2)O1` (stereo unspecified) the figure was -14.3%; with `CC(C)CC(C)NCc1cccnc1N1CCN(c2ccccn2)CC1` (stereo unspecified), -12.3%; with `CCc1nnc(CN(CC)C(=O)C2CC(=O)N(C3CC3)C2)o1` (stereo unspecified), -3.34%. Turning to `O=C1CCC2(CCOC2)CN1Cc1nc2ccc(Cl)cc2[nH]1` (stereo unspecified), the cytotoxicity at 70.5 h is -1.72%. Regarding `CN1C[C@@H]2CC[C@H](CC1=O)N2C(=O)c1ccc(-c2ccccc2)[nH]c1=O`, the cytotoxicity at 70.5 h is -8.24%.

For `CCC1CN(C(=O)c2ccc(O)c(C)c2)CCN1C(C)C` (stereo unspecified), the cytotoxicity at 70.5 h was -5.22%. For `CCc1cc(CN2CCCCC2c2ccc(F)cc2)on1` (stereo unspecified), the cytotoxicity at 70.5 h was -5.55%. With `O=C1CCCN1CCCNCc1cc(O)c2cccc(F)c2n1`, the cytotoxicity at 70.5 h is -3.49%. In the case of `CC(=O)N1CCc2c(nc(N(C)C)nc2N(C)CC2CCCO2)C1` (stereo unspecified), the cytotoxicity at 70.5 h is -6.61%. The same measure for `Cc1cccc(C(C(=O)NCCc2nc(C)cc(=O)[nH]2)N(C)C)c1` (stereo unspecified): 25.6%; for `Cc1ccnc(N2CCCC(c3nccn3C(C)C)C2)n1` (stereo unspecified): 1.49%.

For the compound `Cc1c(C(=O)N2C[C@@H](CN(C)CCO)[C@@H](CO)C2)sc2ccccc12`, the cytotoxicity at 70.5 h is -9.44%.

Regarding `CC(C)c1nccn1C(C)C(=O)NC1Cc2ccccc2C1` (stereo unspecified), the cytotoxicity at 70.5 h is -1.16%. As for `N#Cc1ccc(C(=O)N2CCCC3(C=Cc4ccccc4O3)CC2)cn1` (stereo unspecified), the cytotoxicity at 70.5 h amounted to 7.89%. For `Cn1ccnc1CN1CCN(Cc2ccccc2)[C@@H]2CS(=O)(=O)C[C@@H]21`, the cytotoxicity at 70.5 h was -9.92%. Regarding `CCN1CCc2c(CNC(=O)c3nccn3C)cncc2C1`, the cytotoxicity at 70.5 h was -10.7%. The same measure for `CC(C)N1CCc2c(CNC(=O)c3nccn3C)cncc2C1`: -4.9%; for `CCN1CCC2(CC1)CC(NC(=O)c1csnn1)c1ccccc1O2` (stereo unspecified): -7.53%. Consider `CCN1CCOCC12CCN(c1nccs1)CC2`, for which the cytotoxicity at 70.5 h was -13.5%. For the compound `O=C(NCc1cnc2n1CCN(CC1CCOCC1)C2)c1ccno1`, the cytotoxicity at 70.5 h is 31.3%. Take `OCCOCc1n[nH]c2c1CN(Cc1ccccn1)C2`: the cytotoxicity at 70.5 h was -7.78%.

Take `Cc1cncc(C(=O)N2CCC3(CCCN(c4nncs4)C3)C2)c1` (stereo unspecified): the cytotoxicity at 70.5 h is -3.85%.

As for `O=C(NCc1cnc2n1CCN(Cc1nccs1)C2)c1ccno1`, the cytotoxicity at 70.5 h is -3.38%. Regarding `CN1[C@H](Cn2cncn2)C[C@@H]2CN(Cc3ccsc3)CC[C@@H]21`, the cytotoxicity at 70.5 h is -3.81%. Turning to `O=C(Nc1cccnc1)[C@H]1CN(Cc2ccco2)C[C@H]2OCC[C@@H]12`, the cytotoxicity at 70.5 h was -7.09%.

For the origin of these results see ChEMBL document CHEMBL3507680, “University of Dundee, Gates Library screen for HepG2 cell viability”.
